Results reported in US9284348B2, “Method for synthesis of peptide using a carrier” (JITSUBO Co., Ltd., priority 2005, dated 2016).
In brackets after ≈: the same amount, converted by molar mass.

Legend:
[1] = Evaluation of solubility in organic solvents at 25° C.; format: physicochemical; settings: tetrahydrofuran, organic solvent or mixture
Description: The compound 2 (2,4-bisoctadecyloxyphenylmethanol) thus obtained was measured for solubility in hexane, cyclohexane, dichloromethane and tetrahydrofuran, respectively, when used as solvents at 25° C.
3,4,5-Tris-octadecyloxybenzylalcohol (compound 6) having the following chemical formula was measured for solubility in various solvents at 25° C. similar to as in Example 1.

[2] = Evaluation of separation efficiency: excision of the compound from the carrier with trifluoroacetic acid/dichloromethane, material consumption by HPLC; format: physicochemical
Description: By stirring the obtained compound 7 (4-iodo-benzoic acid 2,4-bis-octadecyloxybenzyl ester) in solvents listed in Table 2 and for the times shown in Table 2, separation of the compound from the carrier was performed to obtain the reaction rate. In this case, the reaction rate was calculated by assessing the disappearance of material by HPLC.
Regarding compound 9 (4-iodo-benzoic acid 3,4,5-tris-octadecyloxybenzyl ester) having the following formula 6, which was prepared by condensing 4-iodobenzoic acid to compound 6 (3,4,5-tris-octadecyloxybenzyl alcohol), the separation reaction rate was measured under various conditions similar to in Example 2.
The above-obtained compound was evaluated for the separation efficiency, similar to Example 3, when it was stirred in dichloromethane containing 1% trifluoroacetic acid for 30 min. As a result, the reaction rate was 100%.

[3] = 1% trifluoroacetic acid/dichloromethane, 30 min
[4] = 10% trifluoroacetic acid/dichloromethane, 120 min
[5] = 50% trifluoroacetic acid/dichloromethane, 120 min

solubility [1] [mg/mL] | Reaction rate (material consumption evaluated by HPLC measurement) [2, 3] | Reaction rate (material consumption evaluated by HPLC measurement) [2, 4] [%] | Reaction rate (material consumption evaluated by HPLC measurement) [2, 5] [%] | SMILES
236 (≈ 312 mM) |  |  |  | CCCCCCCCCCCCCCCCCCCCCCOc1ccc(CO)c(OCCCCCCCCCCCCCCCCCCCCCC)c1 [2,4-bis-docosanoxyphenyl methanol]
 | 100% |  |  | CCCCCCCCCCCCCCCCCCCCCCOc1ccc(COC(=O)c2ccc(I)cc2)c(OCCCCCCCCCCCCCCCCCCCCCC)c1 [4-iodo-benzoic acid 2,4-bis-docosanoxybenzyl ester]
 | 100% | 100 | 100 | CCCCCCCCCCCCCCCCCCOc1ccc(COC(=O)c2ccc(I)cc2)c(OCCCCCCCCCCCCCCCCCC)c1 [Compound 7, 4-iodo-benzoic acid 2,4-bis-octadecyloxybenzyl ester]
 | 1< % | 12 | 100 | CCCCCCCCCCCCCCCCCCOc1cc(COC(=O)c2ccc(I)cc2)cc(OCCCCCCCCCCCCCCCCCC)c1OCCCCCCCCCCCCCCCCCC [Compound 9, 4-iodo-benzoic acid 3,4,5-tris-octadecyloxybenzyl ester, reference compound]
